Measurements as given in article PMC8645336, “Benchmarking a highly selective USP30 inhibitor for enhancement of mitophagy and pexophagy” (Life Science Alliance, 2021).

Tests used:
USP4 = target: T1, USP4 (Homo sapiens, UniProt Q13107); assay: biochemical; set-up: Ubiquigent DUB profiler selectivity panel, remaining enzyme activity as % of control; conditions: read-out: % of control remaining
T1 sequence (Q13107 1-963): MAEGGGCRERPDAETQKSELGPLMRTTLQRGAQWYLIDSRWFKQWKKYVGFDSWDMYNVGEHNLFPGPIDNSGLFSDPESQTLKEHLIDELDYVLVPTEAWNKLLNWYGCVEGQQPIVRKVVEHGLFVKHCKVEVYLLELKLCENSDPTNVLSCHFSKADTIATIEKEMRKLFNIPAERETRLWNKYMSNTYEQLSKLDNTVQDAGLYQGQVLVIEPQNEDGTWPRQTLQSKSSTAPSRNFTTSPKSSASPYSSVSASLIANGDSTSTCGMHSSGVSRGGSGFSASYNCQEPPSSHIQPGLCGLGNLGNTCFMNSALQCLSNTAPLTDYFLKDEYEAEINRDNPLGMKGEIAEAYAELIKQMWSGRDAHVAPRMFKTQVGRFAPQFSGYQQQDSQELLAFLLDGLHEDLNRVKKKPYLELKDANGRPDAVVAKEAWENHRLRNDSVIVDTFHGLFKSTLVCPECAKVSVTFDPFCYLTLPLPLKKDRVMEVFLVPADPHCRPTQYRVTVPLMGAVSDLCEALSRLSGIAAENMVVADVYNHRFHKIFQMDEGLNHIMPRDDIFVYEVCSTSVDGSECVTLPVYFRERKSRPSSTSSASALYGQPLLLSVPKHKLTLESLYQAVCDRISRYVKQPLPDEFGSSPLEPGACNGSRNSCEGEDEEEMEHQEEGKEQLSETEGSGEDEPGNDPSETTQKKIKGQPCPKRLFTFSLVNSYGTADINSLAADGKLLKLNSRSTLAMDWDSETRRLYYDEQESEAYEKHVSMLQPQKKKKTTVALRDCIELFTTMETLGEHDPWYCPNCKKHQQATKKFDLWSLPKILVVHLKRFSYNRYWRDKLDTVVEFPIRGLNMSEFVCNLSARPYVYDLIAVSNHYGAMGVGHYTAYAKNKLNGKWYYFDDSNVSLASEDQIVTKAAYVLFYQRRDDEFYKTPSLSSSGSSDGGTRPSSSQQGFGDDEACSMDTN
Summary of the method: (§1)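 CMPD-39 selectivity was profiled at 1-100 μM across >40 DUBs. Cellular engagement used 2 h CMPD-39 pretreatment, then HA-Ub-PA probe for 10 min at 37°C, with USP30 band shift on immunoblot. TOMM20 ubiquitylation was blotted in YFP-PRKN hTERT-RPE1 cells after 1 h antimycin A/oligomycin A (1 μM each).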

USP8 = target: T2, USP8 (Homo sapiens, UniProt P40818); assay: biochemical; set-up: Ubiquigent DUB profiler selectivity panel, remaining enzyme activity as % of control; conditions: read-out: % of control remaining
T2 sequence (P40818 1-1118): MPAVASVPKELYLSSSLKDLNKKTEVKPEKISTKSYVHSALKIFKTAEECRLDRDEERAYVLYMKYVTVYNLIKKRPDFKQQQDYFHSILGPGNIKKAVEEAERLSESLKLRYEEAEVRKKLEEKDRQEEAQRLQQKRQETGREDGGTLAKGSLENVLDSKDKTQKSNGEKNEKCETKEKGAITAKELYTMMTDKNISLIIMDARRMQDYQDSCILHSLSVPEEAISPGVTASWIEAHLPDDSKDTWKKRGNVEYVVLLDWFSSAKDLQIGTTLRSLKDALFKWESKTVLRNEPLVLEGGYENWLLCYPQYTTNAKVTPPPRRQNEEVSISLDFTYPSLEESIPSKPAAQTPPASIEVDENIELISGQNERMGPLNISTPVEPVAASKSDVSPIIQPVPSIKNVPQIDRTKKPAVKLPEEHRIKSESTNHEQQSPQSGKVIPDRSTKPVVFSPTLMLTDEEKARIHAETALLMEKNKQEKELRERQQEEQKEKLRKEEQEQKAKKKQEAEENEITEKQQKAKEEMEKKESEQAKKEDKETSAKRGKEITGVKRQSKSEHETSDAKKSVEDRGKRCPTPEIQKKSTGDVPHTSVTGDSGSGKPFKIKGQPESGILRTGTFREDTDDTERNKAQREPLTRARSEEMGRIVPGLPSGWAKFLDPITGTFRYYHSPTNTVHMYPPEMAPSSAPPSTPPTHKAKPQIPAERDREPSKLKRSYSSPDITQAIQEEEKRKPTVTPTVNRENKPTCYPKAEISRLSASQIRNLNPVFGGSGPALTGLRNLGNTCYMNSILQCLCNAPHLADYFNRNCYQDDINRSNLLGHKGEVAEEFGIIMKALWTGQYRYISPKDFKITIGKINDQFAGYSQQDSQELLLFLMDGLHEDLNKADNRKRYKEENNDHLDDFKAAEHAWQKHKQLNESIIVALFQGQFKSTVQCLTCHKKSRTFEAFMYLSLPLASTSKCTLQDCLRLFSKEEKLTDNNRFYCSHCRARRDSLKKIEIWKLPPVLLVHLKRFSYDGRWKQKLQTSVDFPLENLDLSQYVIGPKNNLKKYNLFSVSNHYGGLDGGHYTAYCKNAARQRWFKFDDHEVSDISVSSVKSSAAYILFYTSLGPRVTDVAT
Summary of the method: as §1

remaining activity at 1 µM (USP4): 107%
remaining activity at 10 µM (USP4): 103%
remaining activity at 100 µM (USP4): 98.9%
remaining activity at 1 µM (USP8): 105%
remaining activity at 10 µM (USP8): 100%
remaining activity at 100 µM (USP8): 102%
SMILES: CC(C)(C)NS(=O)(=O)c1ccc(NC(=O)[C@H](Cc2ccccc2)NC(=O)c2ccc(F)cc2)cc1 [compound 39, CMPD-39]
